Patent US20190336460A1, “C[…] ACID OR PHARMACEUTICALLY ACCEPTABLE SALT THEREOF AS ACTIVE INGREDIENT FOR PREVENTING OR TREATING OBESITY OR METABOLIC SYNDROMES CAUSED BY OBESITY” (KOREA FOOD RESEARCH INSTITUTE, priority 2016, published 2019)
“And” between values parts separate entries of the source, which are not always exact repeats. Equal entries are not always repeated.

Tests used:
[1] = test system: high-fat diet-induced obesity experimental animals (C57BL/6J mice); assay: Body weight change in high-fat diet-induced obesity mice orally given organic acid salts; assay type: in vivo, mouse; conditions: for average body weight after 13 weeks of rearing / reduction in body weight gain compared with the high-fat diet control group: C57BL/6J mice, high-fat diet 13 weeks, oral once a day; for average body weight after 13 weeks of rearing: 10 mmol (2 μg/g bodyweight); for reduction in body weight gain compared with the high-fat diet control group: 10 mmol
Protocol: (§1) In the present experiment, five-week-old C57BL/6J mice were purchased from Saeron Bio (Uiwang, Korea), and acclimated for 1 week before use in the experiment. The rearing room was controlled to have a temperature of 20±2° C., a humidity of 55±10%, and a light/darkness cycle of 12 hours during the experimental period. The experimental animals were divided into 6 groups according to the randomized block design, after 1-week of normal diet. The experimental groups were classified into Group A (normal diet group; n=10), Group B (high-fat diet control group; n=10), Group C (high-fat diet+sodium formate 10 mmol; n=9), Group D (high-fat diet+sodium butyrate 10 mmol; n=9), Group E (high-fat diet+sodium propionate 10 mmol; n=8), and Group F (high-fat diet+sodium acetate 10 mmol; n=4).
(§2) Water and feed were freely accessible. Groups A and B were orally administered with physiological saline, and the other groups were orally administered with corresponding organic acids once a day (2 μg/g bodyweight). For the test groups, obesity was induced by a high-fat diet for 13 weeks, and a high-fat diet (D12492; 60% of the calories) purchased from Research Diet (USA) was used in the experiment.
(§3) The body weights of the experimental animals were measured at a fixed time once a week during the experiment. The experimental animals were fasted for 12 hours before sacrifice, and blood was collected from eyes of the experimental animals anesthetized with ether. In order to prevent the coagulation of the blood after collection, the blood was placed in anti-coagulation tubes and left in an ice bath for 20 min. The collected blood samples were centrifuged at 3000 rpm for 10 min to separate serum therefrom, and refrigerated until use in the experiment. Thereafter, the kit through an enzymatic method was purchased from Young Dong Diagnostics (Yong-In, Korea) to measure the levels of blood lipids (triglyceride, cholesterol, HDL-Cholesterol, and LDL-Cholesterol). The organs were extracted, washed with physiological saline, dehydrated with a filter bed, and then weighed.
The high-fat diet-induced obesity experimental animals (C57BL/6J mice) were orally administered with each 10 mmol corresponding organic acid for 13 weeks, and the weights of the mice were measured once a week during the rearing.

[2] = test system: high-fat diet-induced obesity experimental animals (C57BL/6J mice); assay: Organ weights (fat tissues, prostate, liver, spleen) in high-fat diet-induced obesity mice; assay type: in vivo, mouse; conditions: high-fat diet 13 weeks, 10 mmol; for Brown fat weight / Epididymal fat weight / Kidney fat weight / Subcutaneous fat weight: oral once a day, mean ± S.D.
Protocol: as §1, §2, §3
The kidney fat, epididymal fat, subcutaneous fat, brown fat, prostate, liver, and spleen were extracted immediately after blood collection from the control and experimental groups, and washed with physiological saline, subjected to surface moisture removal, and then weighed.

[3] = test system: high-fat diet-induced obesity experimental animals (C57BL/6J mice); assay: Blood analysis: serum lipid concentrations in high-fat diet-induced obesity mice; assay type: in vivo, mouse; conditions: for serum Cholesterol / serum HDL / serum LDL / serum Triglyceride / content of cholesterol, reduction compared with the high-fat diet control group / serum triglyceride, lower value compared with the high-fat diet control group: C57BL/6J mice, high-fat diet 13 weeks, 10 mmol; for serum Cholesterol / serum HDL / serum LDL / serum Triglyceride: oral once a day, 12 h fasted, mean ± S.D.; for content of cholesterol, reduction compared with the high-fat diet control group / serum triglyceride, lower value compared with the high-fat diet control group: oral; for LDL-cholesterol content compared with the high-fat diet control group (in words): mouse, in vivo
Protocol: as §1, §2, §3

epididymal fat cells = assay: Size measurement of epididymal fat cells (H&E staining, Image J); assay type: in vivo, mouse; conditions: C57BL/6J mice, high-fat diet 13 weeks, oral, 10 mmol; compared among groups and with high-fat diet control group
Protocol: as §1, §2
The immobilized tissue was sliced into 18 μm using a cryostat microtome, and fat cells were stained by hematoxylin and eosin (H&E) fat staining. The fat cells were decolorized using 60% isopropanol after the staining, and then imaged using a digital camera under a microscope. For size analysis of fat cells, the area of fat cells was measured using Image J Software (National Institute of Health, Maryland, USA).

[4] = administered orally; cited from earlier work
[5] = oral, no significant difference

| SMILES | average body weight after 13 weeks of rearing [1] [g] | Brown fat weight [2] | Epididymal fat weight [2] | Kidney fat weight [2] | Subcutaneous fat weight [2] | weight of epididymal fat, lower value compared with the high-fat diet control group ([2]; oral) [%] | serum Cholesterol [3] | serum HDL [3] | serum LDL [3] | serum Triglyceride [3] | content of cholesterol, reduction compared with the high-fat diet control group [3] [%] | epididymal fat cell size (in words) (epididymal fat cells) | reduction in body weight gain compared with the high-fat diet control group [1] [%] | weight of subcutaneous fat, lower value compared with the high-fat diet control group ([2]; oral) [%] | serum triglyceride, lower value compared with the high-fat diet control group [3] [%] | LDL-cholesterol content compared with the high-fat diet control group (in words) [3] | other results |
| --- | --- | --- | --- | --- | --- | --- | --- | --- | --- | --- | --- | --- | --- | --- | --- | --- | --- |
| CC(=O)[O-].[Na+] [acetate, sodium acetate] | 41.08 | 0.11 ± 0.03^A g | 2.31 ± 0.45^AB g | 0.66 g and 0.81 ± 0.07^BAB g | 1.74 ± 0.31^A g | 7.6 | 114.86 ± 3.76^A mg/dl | 61.09 ± 2.21^A mg/dl | 32.34 ± 1.44^A mg/dl | 155.21±5.43 mg/dl and 155.21 ± 5.43^A mg/dl | 7.8 | smaller in that order of butyrate, propionate, formate, and acetate |  |  |  |  | body weight compared with the high-fat diet control group (in words) ([1]; after 13 weeks, p<0.05): no significant difference; weight of brown fat, higher value compared with the high-fat diet control group [2, 5]: 22.22%; weight of subcutaneous fat, higher value compared with the high-fat diet control group [2, 5]: 10.13%; serum triglyceride compared with the high-fat diet control group (in words) ([3]; p<0.05): significantly higher value |
| CCC(=O)[O-].[Na+] [propionate, sodium propionate] | 30.05 | 0.09 ± 0.02^A g | 1.91 ± 0.44^B g | 0.71 g and 0.66 ± 0.09^C g | 1.07 g and 1.07 ± 0.24^B g | 23.6 | 95.63 ± 5.41^B mg/dl | 50.12 ± 1.69^C mg/dl | 30.41 ± 0.51^B mg/dl | 120.68±10.07 mg/dl and 120.68 ± 10.07^B mg/dl |  | smaller in that order of butyrate, propionate, formate, and acetate | 18.3 | 32.27 | 7.2 |  |  |
| O=C[O-].[Na+] [formate, sodium formate] | 36.78 | 0.09 ± 0.03^A g | 2.01 ± 0.24^B g | 0.72 g and 0.72 ± 0.08^BC g | 1.08 g and 1.08 ± 0.21^B g | 19.6 | 79.00 ± 2.81^C mg/dl | 41.51 ± 3.56^D mg/dl | 26.24 ± 0.29^CD mg/dl | 99.48±14.18 mg/dl and 99.48 ± 14.18^C mg/dl | 36.6 | smaller in that order of butyrate, propionate, formate, and acetate | 10.4 | 31.16 | 23.54 | lower values | oral amount causing no side effect in the human body [4]: up to 10 g |
| CCCC(=O)[O-].[Na+] [butyrate, sodium butyrate] | 31.25 | 0.09 ± 0.04^A g | 2.00 ± 0.29^B g | 0.71 ± 0.12^BC g | 1.16 g and 1.16 ± 0.25^B g | 20 | 95.63 ± 3.87^B mg/dl | 55.99 ± 0.43^B mg/dl | 24.95 ± 1.23^D mg/dl | 128.01±14.72 mg/dl and 128.01 ± 14.72^B mg/dl |  | smaller in that order of butyrate, propionate, formate, and acetate | 15.6 | 26.58 |  | lower values |  |
